According to the supplement of paper PMC11061612:

Tests used:
Test in all cases: combination Emax (second highest fraction inhibited in the dose matrix, 72 h); higher = more inhibition; extreme values may be limits of the assay
[1] = test system: EMC-BAC-2 (Non-Small Cell Lung Carcinoma)
How it was run: (§1)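 Bliss excess equals the observed combination effect minus the expected value EA + EB − EA·EB, where EA and EB are the effects of each agent alone. Combination Emax is the second-highest inhibition within the matrix. Inhibition was scaled from CellTiter-Glo 2.0 luminescence, with 0 set by vehicle wells and 1 by blank wells, after 72 hours of two-drug dosing of cells plated in 1536-well plates.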

[2] = test system: HC-1 (Other Blood Carcinomas)
How it was run: as §1

U-87-MG (Glioblastoma) = test system: U-87-MG (Glioblastoma)
How it was run: as §1

EW-3 (Ewing's Sarcoma) = test system: EW-3 (Ewing's Sarcoma)
How it was run: as §1

[3] = test system: JHH-7 (Hepatocellular Carcinoma)
How it was run: as §1

[4] = test system: KYSE-150 (Esophageal Squamous Cell Carcinoma)
How it was run: as §1

[5] = test system: LC4-1 (B-Lymphoblastic Leukemia)
How it was run: as §1

[6] = test system: OCUB-M (Breast Carcinoma)
How it was run: as §1

EW-18 (Ewing's Sarcoma) = test system: EW-18 (Ewing's Sarcoma)
How it was run: as §1

[7] = test system: OVISE (Ovarian Carcinoma)
How it was run: as §1

[8] = test system: NCI-H1573 (Lung Adenocarcinoma)
How it was run: as §1

[9] = test system: PFSK-1 (Other Solid Carcinomas)
How it was run: as §1

[10] = test system: NCI-H322M (Lung Adenocarcinoma)
How it was run: as §1

[11] = test system: LOU-NH91 (Squamous Cell Lung Carcinoma)
How it was run: as §1

| SMILES | combination Emax [1] | combination Emax [2] | combination Emax (U-87-MG (Glioblastoma)) | combination Emax (EW-3 (Ewing's Sarcoma)) | combination Emax [3] | combination Emax [4] | combination Emax [5] | combination Emax [6] | combination Emax (EW-18 (Ewing's Sarcoma)) | combination Emax [7] | combination Emax [8] | combination Emax [9] | combination Emax [10] | combination Emax [11] |
| --- | --- | --- | --- | --- | --- | --- | --- | --- | --- | --- | --- | --- | --- | --- |
| COc1nnc2ccc(N3CCC(c4ccc(OCCN5CCN(C)C(=O)[C@H]5C)cc4)CC3)nn12 [AZD5153] + CCN(CCO)CCCOc1ccc2c(Nc3cc(CC(=O)Nc4cccc(F)c4)[nH]n3)ncnc2c1 [AZD2811] (first compound max 1 µM, 7x7, partner max 1 µM) | 0.738 | 0.572 | 0.603 | 0.626 | 0.361 | 0.688 | 0.963 | 0.69 | 0.768 | 0.589 | 0.412 | 0.574 | 0.507 | 0.743 |
| CC1(C)CCC(CN2CCN(c3ccc(C(=O)NS(=O)(=O)c4ccc(NCC5CCOCC5)c([N+](=O)[O-])c4)c(Oc4cnc5[nH]ccc5c4)c3)CC2)=C(c2ccc(Cl)cc2)C1 [Venetoclax] + CCN(CCO)CCCOc1ccc2c(Nc3cc(CC(=O)Nc4cccc(F)c4)[nH]n3)ncnc2c1 [AZD2811] (first compound max 1 µM, 7x7, partner max 1 µM) | 0.343 | 0.712 | 0.265 | 0.779 | 0.184 | 0.308 | 1 | 0.749 | 0.707 | 0.311 | 0.215 | 0.304 | 0.188 | 0.307 |
| CC1(C)CCC(CN2CCN(c3ccc(C(=O)NS(=O)(=O)c4ccc(NCC5CCOCC5)c([N+](=O)[O-])c4)c(Oc4cnc5[nH]ccc5c4)c3)CC2)=C(c2ccc(Cl)cc2)C1 [Venetoclax] + C=CCn1c(=O)c2cnc(Nc3ccc(N4CCN(C)CC4)cc3)nc2n1-c1cccc(C(C)(C)O)n1 [AZD1775] (first compound max 1 µM, partner max 1 µM) | 0.404 | 1 | 0.265 | 0.819 | 0.349 | 0.496 | 1 | 0.754 | 0.587 | 0.669 | 0.31 | 0.72 | 0.862 | 0.436 |
| C[C@@H](c1ccc2nccn2c1)n1nnc2ncc(-c3cnn(C)c3)nc21 [Savolitinib] + Cc1c2c(nn1C)CSCc1cc(n(C)n1)CSc1cc(c3ccccc3c1)OCCCc1c(C(=O)O)n(C)c3c-2c(Cl)ccc13 [AZD5991] (first compound max 1 µM, 7x7, partner max 1 µM) | 0.45 | 0.216 | 0.288 | 0.558 | 0.205 | 0.219 | 0.939 | 0.899 | 0.874 | 0.148 | 0.351 | 0.93 | 0.086 | 0.199 |
| NC1(C(=O)N[C@@H](CCO)c2ccc(Cl)cc2)CCN(c2ncnc3[nH]ccc23)CC1 [Capivasertib] + COc1nnc2ccc(N3CCC(c4ccc(OCCN5CCN(C)C(=O)[C@H]5C)cc4)CC3)nn12 [AZD5153] (first compound max 10 µM, 7x7, partner max 1 µM) | 0.769 | 0.664 | 0.671 | 0.837 | 0.311 | 0.796 | 0.99 | 0.998 | 0.787 | 0.526 | 0.562 | 0.581 | 0.615 | 0.656 |
| CN(CCO)CC[C@H](CSc1ccccc1)Nc1ccc(S(=O)(=O)NC(=O)c2ccc(N3CCC([C@@H](O)c4ccccc4-c4ccc(Cl)cc4)CC3)cc2)cc1S(=O)(=O)C(F)(F)F [AZD4320] + C[C@@H](Nc1cc(F)cc(F)c1)c1cc(C(=O)N(C)C)cc2c(=O)cc(N3CCOCC3)oc12 [AZD8186] (first compound max 1 µM, 7x7, partner max 3 µM) | 0.383 | 0.965 | 0.527 | 0.898 | 0.368 | 0.298 | 1 | 0.835 | 0.914 | 0.881 | 0.289 | 0.471 | 0.506 | 0.768 |
| NC1(C(=O)N[C@@H](CCO)c2ccc(Cl)cc2)CCN(c2ncnc3[nH]ccc23)CC1 [Capivasertib] + CC(=O)c1c(C)c2cnc(Nc3ccc(N4CCNCC4)cn3)nc2n(C2CCCC2)c1=O [Palbociclib] (first compound max 10 µM, 7x7, partner max 10 µM) | 0.663 | 0.632 | 0.585 | 0.414 | 0.302 | 0.644 | 0.578 | 0.994 | 0.807 | 0.467 | 0.507 | 0.489 | 0.639 | 0.5 |
| CC(=O)c1c(C)c2cnc(Nc3ccc(N4CCNCC4)cn3)nc2n(C2CCCC2)c1=O [Palbociclib] + Cn1cnc2c(F)c(Nc3ccc(Br)cc3Cl)c(C(=O)NOCCO)cc21 [Selumetinib] (first compound max 10 µM, 7x7, partner max 10 µM) | 0.362 | 0.59 | 0.326 | 0.45 | 0.323 | 0.684 | 0.614 | 0.0542 | 0.58 | 0.271 | 0.565 | 0.138 | 0.665 | 0.213 |
